Data on one substance can be found in patent US6787318B1, “Assay for evaluating the therapeutic effectiveness of agents in reducing Alzheimer's disease pathology” (Roskamp Research Institute, LLC, priority 1999, dated 2004).

Series [1] relates to primary cultured cortical neurons. Description: Primary cultured microglia-mediated neuronal cell injury (micrographs, 51Cr release, LDH release). The class given is cell-based, mice. The following applies: primary cultured microglia with cortical neurons. The source says: CD45 positive cells (brown) are microglia, while neurofilament L-staining cells (red) are neurons. […] Results shown are from one of three independent experiments with similar results; FIG. 2E is a graph showing primary cultured microglia-mediated neuronal cell injury as evidenced by ^51Cr release. Data are reported as mean ^51Cr release values±1 SEM and n=9 for each condition presented. […] N=9 for each condition presented.
Having shown that Aβ peptides activate microglia through the CD40 pathway, it was then investigated whether activation of Aβ-pretreated microglia by ligation of CD40 could mediate neuronal cell injury (23,24).
A general note: LDH leaks from cells whose membrane has failed.

A further series concerns IFN-γR. The experiment in a line: IFN-γR expression in HASM cells, cell-ELISA (CELISA). The conditions noted are these: Aβ-treated cells, 1 μg/ml mAb, four hours. In kind it is cell-based, human. The method, then: In vitro measurement of Aβ-induced changes in expression of the inflammatory cell-surface molecules CD40 and […] in cultured HAEC and HASM cells was performed using a slightly modified ABC-based cell-ELISA (CELISA). […] After PBS washes, 4% neutral formalin solution (Sigma) was used for fixation of the cells. Following quenching of the endogenous peroxidase activity with 3% H2O2 and routine blocking of non-specific binding, the biotinylated specific secondary antibodies against the primary antibodies (goat anti-mouse or anti-rabbit IgG) were applied. The combination of EXTRAVIDIN® Proxidase and the subsequent color reaction was performed strictly according to the manufacturer's instructions in the EXTRAVIDIN® Peroxidase Staining Kit (Sigma). The absorbance of 405 nm was then measured using a microplate reader (SPECTRAmax 250, Molecular Devices). The optical density (O.D.) value for the wells in the absence of the primary antibody for each group was considered as background and subtracted as the blank. In addition, stimulation with IFN-γ for CD40 was included as a positive control in the appropriate plate. Since CD45 is not expressed by endothelial or smooth muscle cells, the assays for expression of CD45 in these Aβ-treated cells were used as negative controls throughout the experiment. In addition, to evaluate the degree of cell death or proliferation in the Aβ-treated, cells, parallel experiments were performed using the MTS (3-(4,5-dimethylthiazol-2-yl)-5-(3-carboxymethoxyphenyl)-2-(4-sulfophenyl)-2H-tetrazolium) cell-proliferation kit (Promega).
Activation of CD40 signalling can be achieved by stimulation with either CD40L or certain anti-CD40 mAbs. Since synthetic CD40L is not commercially available, one of the anti-CD40 mAbs (clone 3/23), which has been reported to activate CD40 signalling, was used to mimic the effect of interaction of CD40-CD40L. All Aβ-treated cells were incubated with 1 μg/ml anti-CD40 mAb […]) for four hours followed by CELISA.

For the next series, the system named is CD40. Description: CD40 cell-surface expression on HAEC, flow cytometry. In kind it is cell-based, human. The following applies: Aβ 500 nM, IFN-γ 10 U/mL; vs control peptide or Aβ-free. The method, then: Cultured HAEC were treated as described above. […] Cells were analyzed on a FACScan flow cytometer (Becton-Dickinson, Mountain View, Calif.) using LYSIS-II software. CD40-expressing cells are defined as percentage of CD40-staining cells minus the percentage of IgG1-staining cells.
CD40 expression between control peptide-treated and Aβ-free AEC was relatively similar.

For another series, the system named is IL-1β. Description: IL-1β secretion from HAEC, ELISA. In kind it is cell-based, human. The conditions noted are these: 24 hours. As to the method:
The assay for either IL-1β or IFN-γ was performed in strict accordance with the manufacturer's instructions for the respective assay kits.
The resulting cell culture media were assayed for IL-1β or IFN-γ using ELISA. […] The lowest effective concentration was determined to be 100 nM for IFN-γ ([…]). The lowest effective concentration was determined to be 100 nM for IFN-γ (p<0.01) and 1 μM for IL-1β (p<0.01).
(In general: ELISA stands for enzyme-linked immunosorbent assay.)

Another series relates to HAEC. The experiment in a line: Cytotoxicity in HAEC, LDH release assay. The class given is cell-based, human. The following applies: 500 nM, 48 hours. The method, then:
Previous reports have shown that overexpression of amyloid precursor protein or exogenous addition of Aβ peptides can have cytotoxic effects on cultured endothelial cells.
In order to determine if ligation of endothelial CD40 could result in production of pro-inflammatory cytokines, IL-1β was measured following treatment with IFN-γ or Aβ peptides. […] There was not observe a significant induction of endothelial cell death by LDH release assay between treatment groups during the time course examined by IL-1β release assay (by One-way ANOVA, F(6,41)=0.322, p=0.921), supporting the hypothesis that stimulation of the CD40 pathway in endothelial cells results in an early pro-inflammatory cascade which later promotes cell injury, rather than induce cytotoxicity acutely.

A further series has as its system TNF-α. Description: TNF-α release from cultured microglia, TNF-α ELISA. The class given is cell-based, mice. The following applies: 500 nM, primary cultured microglia.
The test system of the next series is cortical neurons. Description: Cortical neurons incubated with treated N9 microglia, photomicrographs. The class given is cell-based, murine. The following applies: Aβ1-42 250 nM, CD40L 0.5 μg/ml.

As to “Aβ1-42: amyloid β peptide 1-42, freshly solubilized”, in series [1], the “neuronal degeneration / injury in micrographs” value is “not detectable”. Further, the “IFN-γR expression in HASM cells on CD40 ligation by mAb (3/23)” value with IFN-γR was “additive”. The “CD40 cell-surface expression, flow cytometry” value with CD40 is recorded as “significantly induce CD40 expression”. In addition, in the series with IL-1β, the “lowest effective concentration for IL-1β secretion” value was 1 µM. Further, the “IL-1β secretion, dose dependence” value with IL-1β (increasing concentrations) is “increases the secretion of IL-1β and IFN-γ in a dose-dependent manner”. The “cell injury, LDH release” value in the series with HAEC is “no significant induction of cell injury”. The “TNF-α release, peptide alone” value in the series with TNF-α is “does not induce TNF-α release”. In the series with cortical neurons, the “change in cortical neurons” value is reported as “no change in cortical neurons”.
